Test [1] has as its system AOM/DSS-induced colon tumorigenesis. The test can be described thus: AOM/DSS chronic inflammation-driven colon cancer mouse model. Type of test: in vivo. As to conditions: AOM/DSS-treated WT mice; for colon tumor burden: vs vehicle. How it is done:
The drug was administered twice weekly for the duration of the protocol. […] As stated above, the AOM/DSS colon cancer model is driven primarily by chronic inflammation; thus, we next assessed mice sera for inflammatory factors TNF-α, IL-6, and MCP-1, which are highly relevant to human colon carcinogenesis.
Tumor models, assessment of tumor burden and adoptive transfer—For the azoxymethane/Dextran Sulfate Sodium (AOM/DSS)-induced tumorigenesis model, six to eight weeks old WT, PARP-1^+/− or PARP-1^−/− mice received a single dose (10 mg/kg) of AOM, i.p., followed by 4 cycles of 1.25% DSS provided in drinking water. Each cycle consisted of a week of DSS water separated by 2 weeks of regular water. […] At week 22 after the start of the experimental protocol, mice were sacrificed by CO2 asphyxiation. Colons, spleens, and blood were collected for analysis. Colons were opened longitudinally and washed with PBS to assess the tumor burdens using a dissecting microscope. For the APC^Min-mediated model, APC^Min/+, APC^Min/+PARP-1^+/−, or APC^Min/+PARP-1^−/− male mice were sacrificed at 16 weeks of age. […] Sacrificed mice were processed as described above except that the tumor burden was assessed along the whole intestinal track. Tumors were counted and divided in groups lower than 2 mm, 2-4 mm, and tumors bigger than 4 mm in diameter.
Tissue processing, immunohistochemistry, immunofluorescence and cytokines measurement—Some tissues were fixed in buffered formalin (10%), paraffin-embedded, then sectioned. Serial sections were subjected to H&E staining, immunohistochemistry (IHC) or immunofluorescence, as described (33), with antibodies to PCNA (Novusbio, Littleton, CO), COX-2 (Santa Cruz Biotechnology, Santa Cruz, CA), ICAM-1 (Santa Cruz Biotechnology), CD8 (Santa Cruz Biotechnology), or Gr1 (eBioscience, San Diego, USA) as previously described (34). […] Cytokine levels were assessed for TNF-α (ELM-TNFα-1), IL-6 (ELM-IL-6-1), and MCP-1 (ELM-MCP1) by ELISA (all from RayBiotech, Norcross, GA) according to the manufacturer's instructions and recommendations.

In the next test the test system is ARG-1, iNOS, COX2. The test can be described thus: Immunoblot of ARG-1, iNOS, COX2 and related factors in bone marrow-derived MDSCs. Type of test: cell-based, mouse. From the text:
(I) Positive control for PARP-1 trapping.
Cell fractionation, protein extraction and immunoblot analysis—Tumor tissues or cells were harvested and homogenized in RIPA lysis buffer (Santa Cruz Biotechnology) containing a cocktail of protease and phosphatase inhibitors on ice. Nuclear fractions were isolated as described (35) and the remaining chromatin pellets were washed then suspended in an isotonic buffer followed by sonication. […] Protein expression signals developed by ECL (Pierce, ThermoFisher Scientific) were determined by a G:Box Gel Image Analysis System (Syngene, Cambridge, UK) equipped with the GeneSys image capture software.
In general terms: In western blotting, separated proteins are transferred to a membrane and probed.

Another test has as its system perforin. The test can be described thus: Perforin immunoblot in CD3/CD28-stimulated spleen CD3+ T cells. It is filed as cell-based. As to conditions: 3 days. How it is done:
CD3^+ T cells were isolated from spleen then stimulated with antibodies to CD3 and CD28 for 3 days. Protein extracts were analyzed by immunoblotting with antibodies to perforin (a marker of T cell function) or GAPDH. Note that the 4 nM concentration increased, while the 1 mM decreased, perforin levels.

The subject of another test is steroid-resistant asthma. Briefly: Ovalbumin/LPS/IFNγ-based mouse model of steroid-resistant asthma. It is filed as in vivo. As to conditions: 5 mg/kg. On the procedure: Balb/c mice were sensitized by i.p. injection of 20 μg of Ova in 2.25 mg aluminium hydroxide on days 1 and 14. Steroid resistance was induced by intranasal instillation of Lps (10 μg/mouse) on day 27. Mice were treated with s.c injection of dexmethasone (5 mg/kg) on days 29 and 30. Mice were challenged with aerosolized 1% OVA on days 28, 29, 30 for 20 minutes. Airway hyper responsiveness was measured using plesthesmography 24 hours after the last OVA challenge. Statistics are not included.
Balb I c mice were sensitized by i.p. injection of 20 μg of Ova in 2.25 mg aluminium hydroxide on days 1 and 14. Steroid resistance was induced by intranasal instillation of Lps (10 µg/mouse) on day 27. Mice were treated with s.c injection of dexmethasone (5 mg/kg) on days 29 and 30. Mice were challenged with aerosolized 1% OVA on days 28, 29, 30 for 20 minutes. All mice were euthanized 48 hours after the last OVA challenge then subjected to broncholaveolar lavage. Inflammatory cells were differentiated and assessed using Diff Quick staining. Statistics are not included.
Balb/c mice were sensitized by i.p. injection of 20 μg of Ova in 2.25 mg aluminium hydroxide on days 1 and 14. Steroid resistance was induced by intranasal instillation of Lps (10 μg/mouse) on day 27. Mice were treated with s.c injection of dexmethasone (5 mg/kg) on days 29 and 30. Mice were challenged with aerosolized 1% OVA on days 28, 29, 30 for 20 minutes. All mice were euthanized 48 hours after the last OVA challenge. Cytokines were measured in the collected serum and BAL fluid using multiplex assay. And IgE production was assessed busing sandwich ELISA. Statistics are not included.
Objective: To investigate whether PARP inhibition could restore steroid sensitivity to block LPS/IFN-γ-induced neutrophilia and AHR in steroid-resistant asthma model of the disease. Methods: An ovalbumin/LPS/IFNγ-based model of steroid-resistant murine asthma and an airway epithelial cell culture system were used in this study.

For test [2], the system named is bone marrow-derived MDSCs. As to conditions: co-culture without drug.
A further test has as its system allograft breast cancer. Particulars: 50 mg/kg daily; cited from earlier work.

The structures appear in SMILES notation. Read-outs that look alike come from different tables or passages of the source.

For the compound `O=C(c1cc(Cc2n[nH]c(=O)c3ccccc23)ccc1F)N1CCN(C(=O)C2CC2)CC1` [olaparib], the colon tumor burden result in test [1] (5 mg/kg i.p. twice weekly) and in test [1] (25 mg/kg i.p. twice weekly) was “significantly reduced the tumor burden” in each case. For the same compound, the “colitis (colonic mucosa, H&E)” value in test [1] (5 or 25 mg/kg) is on record as “notable protection”. Further, in the test with ARG-1, iNOS, COX2 (4 nM, single treatment 24 h after plating), the “increase in ARG-1, iNOS and COX2 during MDSC differentiation” value was “sufficient to prevent the increase in ARG-1, iNOS, and COX2”. In addition, in the test on ARG-1, iNOS, COX2 (low and high concentrations (4 nM, 1 μM)), the “ARG-1 and iNOS in MDSCs stimulated by co-culture with MC-38 cells” value was “inhibitory effects”. In addition, the “overall levels of STAT3 (and phosphorylated forms)” value in the test on ARG-1, iNOS, COX2 (low concentration 4 nM) was “increased the overall levels of STAT3”. The “perforin levels (marker of T cell function)” value with perforin (4 nM) was “increased”; in the test on perforin, “decreased”. For the same compound, in the test with steroid-resistant asthma, the “OVA-specific IgE secretion in BALF and serum” value was “marked reduction in OVA-specific IgE secretion”. In addition, in the test with steroid-resistant asthma, the Th2 cytokine production result was “marked reduction in Th2 cytokine production”. Moreover, in the test with steroid-resistant asthma, the “established steroid-resistant asthma manifestation” value is “reversed the established steroid-resistant asthma manifestation in mice”. Besides, in the test with steroid-resistant asthma, the “infiltration of inflammatory cells into the airways” value is “blocked the infiltration of inflammatory cells into the airways”. Besides, the “suppressive activity of MDSCs on T-cell proliferation” value in test [2] (4 nM) is given as “significantly reduced”; in test [2] (high concentration 5 μM) it was “blocked the function of MDSCs completely”; in test [2] (moderate concentration 0.1 μM), “blocked the function of MDSCs completely”. Besides, in the test on allograft breast cancer, the “effect on anti-PD1 immunotherapy” value is recorded as “enhances anti-PD1 immunotherapy”.

These data come from patent US12121518B2, “PARP-1 and methods of use thereof” (The Board of Supervisors of Louisiana State University and …, priority 2017, dated 2024).
